Source: patent US11925649B2, “Treatments for diabetic neuropathy” (University of Manitoba, priority 2010, dated 2024)

Experiments:
[1] = test system: DRG sensory neurons from M1R knockout mice; assay: Neurite outgrowth in sensory neuron cultures from M1R knockout mice; assay type: cell-based, mouse; conditions: 1 μM, 24 hr
[2] = test system: STZ-diabetic Swiss Webster mice; assay: Reversal of diabetic sensory neuropathy with oral dosing; assay type: in vivo, mouse
Experimental: Male out-bred Swiss Webster mice were made diabetic with 2 injections of 90 mg/kg STZ on consecutive days. […] The mice were maintained for 8 weeks after STZ injections.

[3] = test system: PGC-1α; assay: PGC-1α expression in DRG of STZ-diabetic mice (Western blot); assay type: in vivo, mouse; conditions: daily s.c. injections for 8 weeks, lumbar DRG
Experimental: (§1) Lumbar DRG were isolated and rinsed in ice-cold solution containing STE buffer (250 mmol/l sucrose, 10 mmol/l Tris-HCl, 1 mmol/l EDTA, pH 7.4), and then homogenized with a polytron homogenizer ([…] GmbH, Switzerland) using 3×7.5 s grinding pulses at 30 s intervals according to the method taught by Chowdhury et al. (2010, Diabetes 59: 1082-1091).
Quantitative Western blotting was performed as previously disclosed by Chowdhury et al (2010) and Fernyhough et al. (1999, Diabetes 48: 881-889). DRG homogenates of 5-10 μg of protein were resolved on a 10% SDS-PAGE gel and electroblotted onto nitrocellulose membrane. Blots were then blocked in 5% nonfat milk containing 0.05% Tween-20, rinsed in PBS (pH 7.4) and incubated with the following antibodies: polyclonal anti-phospho AMPK (1:1000, Cell Signaling Technology, Danvers, MA, US), polyclonal anti-PGC-1α (1:1000, Santa Cruz Biotechnology Inc, Santa Cruz, CA, USA) and monoclonal anti-ATP synthase β subunit (1:2000 dilution, Mitosciences, Eugene, OR). Extracellular signal-regulated kinase (ERK; 1:2000, Covance, Princeton, NJ, US) was probed as a loading control (previous studies show this protein to not change level of expression in DRG in diabetes). […]

[4] = test system: NDUFS3; assay: NDUFS3 expression in DRG of STZ-diabetic mice (Western blot); assay type: in vivo, mouse; conditions: daily injections for 8 weeks
Experimental: Quantitative Western blotting was performed as described in Example 15. Quantitative Western blotting was performed as previously disclosed by Chowdhury et al (2010) and Fernyhough et al. (1999). DRG homogenates of 5-10 μg of protein were resolved on a 10% SDS-PAGE gel and electroblotted onto nitrocellulose membrane. Blots were then blocked in 5% nonfat milk containing 0.05% Tween-20, rinsed in PBS (pH 7.4) and incubated with the following antibodies: monoclonal anti-cytochrome c oxidase subunit 4 (COX IV; 1:1000, Mitosciences, Eugene, OR, US), monoclonal anti-NADH dehydrogenase (ubiquinone) iron-sulfur protein 3 (NDUFS3, 1:1000, Mitosciences, Eugene, OR, US). Extracellular signal-regulated kinase (T-ERK; 1:2000, Covance, Princeton, NJ, US) was probed as a loading control. The blots were rinsed, incubated in Western blotting Luminol Reagent (Santa Cruz Biotechnology Inc., Santa Cruz, CA, US) and imaged using a BioRad Fluor-S image analyzer (BioRad, Hercules, CA, US).

[5] = test system: mitochondrial respiratory complex I; assay: Mitochondrial respiratory complex I activity in DRG of STZ-diabetic mice; assay type: in vivo, mouse; conditions: daily injections for 8 weeks, lumbar DRG
Experimental: (§2) All measurements of enzymatic activities in lumbar DRG preparations were performed spectrophotometrically using a temperature controlled Ultrospec 2100 UV-visible spectrophotometer (Biopharmacia Biotech, Uppsala, Sweden) using the methods taught by Chowdhury et al. (2010). Complex I activity was measured as rotenone-sensitive NADH: cytochrome c reductase activity. Freshly prepared assay buffer (50 mmol/l K-phosphate pH 7.4, 1 mmol/l KCN, 100 μmol/l NADH) and 10 μg protein of DRG homogenate preparation were added to the cuvette and preincubated for 3 min at 25° C. After addition of 100 μmol/l oxidized cytochrome c, the reaction was followed for 2 minutes at 550 nm and then for 2 more minutes after addition of 25 μmol/l rotenone to allow calculation of the rotenone-sensitive Complex I activity. Complex IV activity was measured at 25° C. by monitoring the absorbance decrease of reduced cytochrome c at 550 nm as disclosed by Chowdhury et al. (2000, Clin. Chim. Acta 298: 157-173). […] Activity of the Krebs cycle enzyme, citrate synthase, was determined at 25° C. in medium containing 150 mmol/l Tris-HCl (pH 8.2), 0.02% laurylmaltoside, 0.1 mmol/l dithionitrobenzoic acid and 5 μg protein according to the method of Chowdhury et al (2007, Free Radic. Res. 41: 1116-1124). The reaction was initiated by addition of 100 μmol/l acetyl CoA and changes in absorbance at 412 nm were measured for 1 minute. […]

[6] = test system: citrate synthase; assay: Citrate synthase activity in DRG of STZ-diabetic mice; assay type: in vivo, mouse; conditions: daily injections for 8 weeks, lumbar DRG
Experimental: as §2

[7] = test system: mitochondria from lumbar DRG of STZ-diabetic rats; assay: Mitochondrial respiratory chain activity in lumbar DRG of STZ-diabetic rats; assay type: in vivo, rat; conditions: daily s.c. during last eight weeks, 20 weeks
Source text: as §1, with “The rats were then culled and subsequently the lumbar” for “Lumbar”, “(2010).” for “(2010, Diabetes 59: 1082-1091).”
Mitochondrial respiratory chain activity in freshly isolated mitochondria from lumbar DRG of age-matched control, diabetic, and pirenzepine-treated diabetic rats was determined using a Clarke-type electrode (Oroboros Oxygraph-2K; Oroboros Instruments, Innsbruck, Austria) following the method taught by Chowdhury et al. (2005, Biochem Biophys Res Commun. 333: 1139-1145), in the presence of specific substrates and inhibitors of the mitochondrial respiratory chain (FIG. 19). Basal respiration in lumbar DRG mitochondria is stated as respiration at state 4 with energetic substrates, pyruvate and malate (P+M). Coupled respiration at state 3 was induced by addition of ADP. Then, the uncoupled rate was determined by adding the uncoupling agent, carbonylcyanide p-trifluoromethoxyphenylhydrazone (FCCP). Ascorbate (Asc) and N,N,N′,N′-tetramethyl-p-phenylenediamine (TMPD) were then added to determine the capacity of cytochrome c oxidase (complex IV). TMPD is an artificial redox mediator that assists transfer of electrons from ascorbate to cytochrome c.

[8] = daily oral gavage for 8 weeks from week 8

CN1CCN(CC(=O)N2c3ccccc3C(=O)Nc3cccnc32)CC1 [pirenzepine, 11-[2-(4-methylpiperazin-1-yl)acetyl]-5H-pyrido[2,3-b][1,4]benzodiazepin-6-1]
neurite outgrowth [1]: did not enhance neurite outgrowth
loss of IENF [2, 8]: reversed loss
loss of SNP [2, 8]: reversed loss
thermal hypoalgesia [2, 8]: reversed thermal hypoalgesia
efficacy of oral formulation ([2]; dissolved in water, administered orally to mice): exhibited efficacy
expression of PGC-1α [3]: restored the expression
expression of NDUFS3 mitochondrial protein [4]: restored the expression
activity of mitochondrial respiratory complex I [5]: restored the deficits
activity of citrate synthase [6]: restored the deficits
capacity of cytochrome c oxidase (complex IV) (Asc+TMPD) [7]: not significantly different from the non-diabetic controls
coupled respiration (P+M+ADP) [7]: not significantly different from the non-diabetic controls
uncoupled respiration (FCCP) [7]: not significantly different from the non-diabetic controls
basal respiration rates with pyruvate and malate (P+M) ([7]; vs control and diabetic rats): similar
